Results published in ChEMBL document CHEMBL4004838, “Design and synthesis of novel phenyl -1, 4-beta-carboline-hybrid molecules as potential anticancer agents” (Eur J Med Chem, 2017).

Legend:
Format in all cases: functional
RPMI-8226 = experiment: Growth inhibition of human RPMI8226 cells incubated for 48 hrs by sulforhodamine B assay; details: RPMI-8226, 48 h
SR = experiment: Growth inhibition of human SR cells incubated for 48 hrs by sulforhodamine B assay
HT-29 = experiment: Growth inhibition of human HT-29 cells incubated for 48 hrs by sulforhodamine B assay; details: HT-29, 48 h
SF-295 = experiment: Growth inhibition of human SF295 cells incubated for 48 hrs by sulforhodamine B assay; details: SF-295, 48 h
IGROV-1 = experiment: Growth inhibition of human IGROV1 cells incubated for 48 hrs by sulforhodamine B assay; details: IGROV-1, 48 h
CAKI-1 = experiment: Growth inhibition of human Caki1 cells incubated for 48 hrs by sulforhodamine B assay; details: CAKI-1, 48 h
PC-3 [1] = experiment: Growth inhibition of human PC3 cells incubated for 48 hrs by sulforhodamine B assay; details: PC-3, 48 h
K562 = experiment: Growth inhibition of human K562 cells assessed as cell growth at 0.01 uM incubated for 48 hrs by sulforhodamine B assay relative to control; details: K562, 48 h, read-out: Activity
SW-620 = experiment: Growth inhibition of human SW620 cells assessed as cell growth at 0.01 uM incubated for 48 hrs by sulforhodamine B assay relative to control; details: SW-620, 48 h, read-out: Activity
SK-MEL-5 = experiment: Growth inhibition of human SK-MEL-5 cells assessed as cell growth at 0.01 uM incubated for 48 hrs by sulforhodamine B assay relative to control; details: SK-MEL-5, 48 h, read-out: Activity
786-0 [2] = experiment: Growth inhibition of human 786-0 cells assessed as cell growth at 0.01 uM incubated for 48 hrs by sulforhodamine B assay relative to control; details: 786-0, 48 h, read-out: Activity
BT-549 = experiment: Growth inhibition of human BT549 cells assessed as cell growth at 0.01 uM incubated for 48 hrs by sulforhodamine B assay relative to control; details: BT-549, 48 h, read-out: Activity
A549 = experiment: Growth inhibition of human A549/ATCC cells assessed as cell growth at 0.1 uM incubated for 48 hrs by sulforhodamine B assay relative to control; details: A549, 48 h, read-out: Activity
NCI-H23 = experiment: Growth inhibition of human NCI-H23 cells assessed as cell growth at 0.1 uM incubated for 48 hrs by sulforhodamine B assay relative to control; details: NCI-H23, 48 h, read-out: Activity
SF-539 = experiment: Growth inhibition of human SF539 cells assessed as cell growth at 0.1 uM incubated for 48 hrs by sulforhodamine B assay relative to control; details: SF-539, 48 h, read-out: Activity
SK-MEL-2 [3] = experiment: Growth inhibition of human SK-MEL-2 cells assessed as cell growth at 0.1 uM incubated for 48 hrs by sulforhodamine B assay relative to control; details: SK-MEL-2, 48 h, read-out: Activity
UACC-257 = experiment: Growth inhibition of human UACC257 cells assessed as cell growth at 0.1 uM incubated for 48 hrs by sulforhodamine B assay relative to control; details: UACC-257, 48 h, read-out: Activity
OVCAR-4 = experiment: Growth inhibition of human OVCAR4 cells assessed as cell growth at 0.1 uM incubated for 48 hrs by sulforhodamine B assay relative to control; details: OVCAR-4, 48 h, read-out: Activity
T47D [4] = experiment: Growth inhibition of human T47D cells assessed as cell growth at 0.1 uM incubated for 48 hrs by sulforhodamine B assay relative to control; details: read-out: Activity
CCRF-CEM = experiment: Growth inhibition of human CCRF-CEM cells assessed as cell growth at 1 uM incubated for 48 hrs by sulforhodamine B assay relative to control; details: read-out: Activity
COLO 205 = experiment: Growth inhibition of human COLO205 cells assessed as cell growth at 1 uM incubated for 48 hrs by sulforhodamine B assay relative to control; details: COLO 205, 48 h, read-out: Activity
KM12 = experiment: Growth inhibition of human KM12 cells assessed as cell growth at 1 uM incubated for 48 hrs by sulforhodamine B assay relative to control; details: KM12, 48 h, read-out: Activity
M14 = experiment: Growth inhibition of human M14 cells assessed as cell growth at 1 uM incubated for 48 hrs by sulforhodamine B assay relative to control; details: M14, 48 h, read-out: Activity
TK-10 = experiment: Growth inhibition of human TK10 cells assessed as cell growth at 1 uM incubated for 48 hrs by sulforhodamine B assay relative to control; details: TK-10, 48 h, read-out: Activity
PC-3 [5] = experiment: Growth inhibition of human PC3 cells assessed as cell growth at 1 uM incubated for 48 hrs by sulforhodamine B assay relative to control; details: PC-3, 48 h, read-out: Activity
HCT-116 = experiment: Growth inhibition of human HCT116 cells assessed as cell growth at 100 uM incubated for 48 hrs by sulforhodamine B assay relative to control; details: HCT-116, 48 h, read-out: Activity
SK-MEL-2 [6] = experiment: Growth inhibition of human SK-MEL-2 cells assessed as cell growth at 100 uM incubated for 48 hrs by sulforhodamine B assay relative to control; details: SK-MEL-2, 48 h, read-out: Activity
786-0 [7] = experiment: Growth inhibition of human 786-0 cells assessed as cell growth at 100 uM incubated for 48 hrs by sulforhodamine B assay relative to control; details: 786-0, 48 h, read-out: Activity
MCF7 = experiment: Growth inhibition of human MCF7 cells assessed as cell growth at 100 uM incubated for 48 hrs by sulforhodamine B assay relative to control; details: MCF7, 48 h, read-out: Activity
T47D [8] = experiment: Growth inhibition of human T47D cells assessed as cell growth at 100 uM incubated for 48 hrs by sulforhodamine B assay relative to control; details: read-out: Activity
[9] = read-out: LC50 (the source's name)
[10] = read-out: pLC50 (the source's name) (converted)

**Q.** For `c1ccc2[nH]c(-c3ccc(-c4nccc5c4[nH]c4ccccc45)cc3)nc2c1`, which GI50 (RPMI-8226; read-out: GI50) is on record?
**A.** The GI50 was 2.48 µM.

**Q.** What about the CC50 (RPMI-8226; [9]) of the same compound?
**A.** The CC50 was greater than 1 µM.

**Q.** And the TGI (RPMI-8226; read-out: TGI)?
**A.** Its TGI is 5.61 µM.

**Q.** And the GI50 (RPMI-8226; read-out: pGI50 (converted))?
**A.** Its GI50 is 2.45 µM.

**Q.** And the CC50 (RPMI-8226; [10])?
**A.** The CC50 was greater than 100 µM.

**Q.** And the TGI (RPMI-8226; read-out: pTGI (converted))?
**A.** Its TGI is 5.62 µM.

**Q.** And the GI50 (SR; read-out: GI50)?
**A.** Its GI50 is 2.21 µM.

**Q.** What about the CC50 (SR; [9]) of the same compound?
**A.** Its CC50 is greater than 1 µM.

**Q.** What about the TGI (SR; read-out: TGI) of the same compound?
**A.** The TGI was 6.36 µM.

**Q.** And the GI50 (SR; read-out: pGI50 (converted))?
**A.** Its GI50 is 2.19 µM.

**Q.** And the CC50 (SR; [10])?
**A.** Its CC50 is greater than 100 µM.

**Q.** And the TGI (SR; read-out: pTGI (converted))?
**A.** Its TGI is 6.31 µM.

**Q.** And the GI50 (HT-29; read-out: GI50)?
**A.** Its GI50 is 2.19 µM.

**Q.** And the CC50 (HT-29; [9])?
**A.** Its CC50 is 8.97 µM.

**Q.** What about the TGI (HT-29; read-out: TGI) of the same compound?
**A.** Its TGI is 4.43 µM.

**Q.** And the GI50 (HT-29; read-out: pGI50 (converted))?
**A.** Its GI50 is 2.19 µM.

**Q.** What about the CC50 (HT-29; [10]) of the same compound?
**A.** Its CC50 is 8.91 µM.

**Q.** What about the TGI (HT-29; read-out: pTGI (converted)) of the same compound?
**A.** Its TGI is 4.47 µM.

**Q.** And the GI50 (SF-295; read-out: GI50)?
**A.** The GI50 was 1.92 µM.

**Q.** What about the LC50 (SF-295; read-out: LC50) of the same compound?
**A.** The LC50 was 8.34 µM.

**Q.** What about the TGI (SF-295; read-out: TGI) of the same compound?
**A.** The TGI was 4 µM.

**Q.** And the GI50 (SF-295; read-out: pGI50 (converted))?
**A.** Its GI50 is 1.91 µM.

**Q.** And the LC50 (SF-295; read-out: pLC50 (converted))?
**A.** The LC50 was 8.32 µM.

**Q.** What about the TGI (SF-295; read-out: pTGI (converted)) of the same compound?
**A.** The TGI was 3.98 µM.

**Q.** And the GI50 (IGROV-1; read-out: GI50)?
**A.** Its GI50 is 4.73 µM.

**Q.** What about the CC50 (IGROV-1; [9]) of the same compound?
**A.** Its CC50 is greater than 1 µM.

**Q.** What about the GI50 (IGROV-1; read-out: pGI50 (converted)) of the same compound?
**A.** The GI50 was 4.68 µM.

**Q.** And the CC50 (IGROV-1; [10])?
**A.** Its CC50 is greater than 100 µM.

**Q.** And the TGI (IGROV-1; read-out: pTGI (converted))?
**A.** Its TGI is 22.4 µM.

**Q.** What about the GI50 (CAKI-1; read-out: GI50) of the same compound?
**A.** The GI50 was 2.41 µM.

**Q.** And the CC50 (CAKI-1; [9])?
**A.** The CC50 was 3.68 µM.

**Q.** What about the TGI (CAKI-1; read-out: TGI) of the same compound?
**A.** Its TGI is 7.11 µM.

**Q.** And the GI50 (CAKI-1; read-out: pGI50 (converted))?
**A.** Its GI50 is 2.4 µM.

**Q.** And the CC50 (CAKI-1; [10])?
**A.** Its CC50 is 37.2 µM.

**Q.** And the TGI (CAKI-1; read-out: pTGI (converted))?
**A.** Its TGI is 7.08 µM.

**Q.** And the GI50 (PC-3 [1]; read-out: GI50)?
**A.** The GI50 was 8.59 µM.

**Q.** And the CC50 (PC-3 [1]; [9])?
**A.** The CC50 was 6.68 µM.

**Q.** What about the GI50 (PC-3 [1]; read-out: pGI50 (converted)) of the same compound?
**A.** Its GI50 is 8.51 µM.

**Q.** And the CC50 (PC-3 [1]; [10])?
**A.** The CC50 was 66.1 µM.

**Q.** And the TGI (PC-3 [1]; read-out: pTGI (converted))?
**A.** The TGI was 25.1 µM.

**Q.** And the growth at 0.01 µM (K562)?
**A.** Its growth at 0.01 µM is 104%.

**Q.** And the growth at 0.01 µM (SW-620)?
**A.** The growth at 0.01 µM was 103%.

**Q.** And the growth at 0.01 µM (SK-MEL-5)?
**A.** Its growth at 0.01 µM is 94%.

**Q.** And the growth at 0.01 µM (786-0 [2])?
**A.** Its growth at 0.01 µM is 89%.

**Q.** And the growth at 0.01 µM (BT-549)?
**A.** The growth at 0.01 µM was 91%.

**Q.** What about the growth at 0.1 µM (A549) of the same compound?
**A.** The growth at 0.1 µM was 98%.

**Q.** And the growth at 0.1 µM (NCI-H23)?
**A.** The growth at 0.1 µM was 93%.

**Q.** And the growth at 0.1 µM (SF-539)?
**A.** The growth at 0.1 µM was 98%.

**Q.** What about the growth at 0.1 µM (SK-MEL-2 [3]) of the same compound?
**A.** Its growth at 0.1 µM is 97%.

**Q.** And the growth at 0.1 µM (UACC-257)?
**A.** Its growth at 0.1 µM is 103%.

**Q.** And the growth at 0.1 µM (OVCAR-4)?
**A.** Its growth at 0.1 µM is 98%.

**Q.** What about the growth at 0.1 µM (T47D [4]) of the same compound?
**A.** The growth at 0.1 µM was 89%.

**Q.** And the growth at 1 µM (CCRF-CEM)?
**A.** Its growth at 1 µM is 103%.

**Q.** And the growth at 1 µM (COLO 205)?
**A.** Its growth at 1 µM is 93%.

**Q.** And the growth at 1 µM (KM12)?
**A.** The growth at 1 µM was 89%.

**Q.** And the growth at 1 µM (M14)?
**A.** The growth at 1 µM was 92%.

**Q.** And the growth at 1 µM (TK-10)?
**A.** Its growth at 1 µM is 96%.

**Q.** What about the growth at 1 µM (PC-3 [5]) of the same compound?
**A.** The growth at 1 µM was 95%.

**Q.** What about the growth at 100 µM (HCT-116) of the same compound?
**A.** Its growth at 100 µM is 78%.

**Q.** What about the growth at 100 µM (SK-MEL-2 [6]) of the same compound?
**A.** The growth at 100 µM was 64%.

**Q.** What about the growth at 100 µM (786-0 [7]) of the same compound?
**A.** Its growth at 100 µM is 70%.

**Q.** And the growth at 100 µM (MCF7)?
**A.** Its growth at 100 µM is 72%.

**Q.** And the growth at 100 µM (T47D [8])?
**A.** Its growth at 100 µM is 53%.
